Biological target: human PCSK9 (Homo sapiens, UniProt Q8NBP7)
Test: PCSK9 ligand binding assay (TR-FRET): interference with binding of human PCSK9 to human LDLR
Conditions: for IC50: Human PCSK9 Alexa Fluor 647 / Human LDLR extracellular domain-Europium Kryptate; for Max % inhibition: efficacy (Amax), 100% = 1 uM unlabeled human PCSK9, 0% = DMSO
Procedure: Example 10: PCSK9 Ligand Binding Assay
The PCSK9 binding of the compounds of the disclosure were measured using a time resolved fluorescence resonance energy transfer (TR-FRET) assay. This time resolved fluorescence resonance energy transfer (TR-FRET) assay measures the ability of a compound of the present disclosure to interfere with the binding of human PCSK9 to human LDLR, providing measures of both potency (IC50) and efficacy (Amax).
Human PCSK9 Alexa Fluor 647
Human LDLR extracellular domain-Europium Kryptate
Proxi plate-low volume assay plate (PerkinElmer #6008280)
Greiner V-bottom (Greiner BioOne #781280)
Assay Buffer • 20 mM HEPES, pH 7.5 • 150 mM NaCl • 1 mM CaCl2 • 0.01% v/v Tween20 • 0.01% w/v BSA
A master compound plate was prepared in a Greiner V bottom plate by diluting compounds of the disclosure in dimethylsulfoxide to the correct concentration for the desired top concentration based on the desired final concentration: for a 30 uM final concentration the master plate concentration is 1.5 mM (68 uL DMSO+12 uL 10 mM of a compound of the disclosure), for a 10 uM final concentration the master plate concentration is 0.5 mM (76 uL DMSO+4 uL 10 mM of a compound of the disclosure), for a 3 uM final concentration the master plate concentration is 150 uM (69 uL DMSO+1 uL 10 mM of a compound of the disclosure). These solutions were pipetted into columns 1 and 11 of the compound plate. Threefold serial dilutions were generated in columns 2-10 and 12-20 of the compound plate by transferring 10 uL into 20 uL of DMSO. Columns 21 and 22 of the compound plate were negative controls containing DMSO alone.
An intermediate plate was generated in a Greiner V bottom plate by transferring 8 uL from each well of the master plate into a corresponding well containing 92 uL of assay buffer and mixing thoroughly.
A Proxi plate-low volume assay plate was used for the assay. To all wells of the plate was added 10 uL of 16 nM Human PCSK9 Alexa Fluor 647, followed by 5 uL from the intermediate plate. For the positive control wells in columns 23 and 24 of the plate, 5 uL of unlabeled human PCSK9 was added at 4 uM in assay buffer containing 8% DMSO. Following a 30 minute incubation, 5 uL of 4 nM Human LDLR extracellular domain-Europium Kryptate was added and the mixture was incubated for an additional 2 hours.
The TR-FRET signal was measured on an EnVision or PheraStar instrument with a 60 ms delay, 330 nm excitation and 665 nm emission (FRET), and 330 nm excitation and 615 nm (Europium). The FRET ratio (FRET/Europium) was used for calculations.
No inhibition (0%) was observed from the wells containing DMSO (Control) in columns 21 and 22 of the compound plate. Full inhibition (100%) was observed from the wells containing 1 uM human PCSK9 (Control) in columns 23 and 24 of the plate. Data is expressed as percent inhibition: (value—0%)/(100%-0%).

Sequence of human PCSK9 (Q8NBP7 153-692): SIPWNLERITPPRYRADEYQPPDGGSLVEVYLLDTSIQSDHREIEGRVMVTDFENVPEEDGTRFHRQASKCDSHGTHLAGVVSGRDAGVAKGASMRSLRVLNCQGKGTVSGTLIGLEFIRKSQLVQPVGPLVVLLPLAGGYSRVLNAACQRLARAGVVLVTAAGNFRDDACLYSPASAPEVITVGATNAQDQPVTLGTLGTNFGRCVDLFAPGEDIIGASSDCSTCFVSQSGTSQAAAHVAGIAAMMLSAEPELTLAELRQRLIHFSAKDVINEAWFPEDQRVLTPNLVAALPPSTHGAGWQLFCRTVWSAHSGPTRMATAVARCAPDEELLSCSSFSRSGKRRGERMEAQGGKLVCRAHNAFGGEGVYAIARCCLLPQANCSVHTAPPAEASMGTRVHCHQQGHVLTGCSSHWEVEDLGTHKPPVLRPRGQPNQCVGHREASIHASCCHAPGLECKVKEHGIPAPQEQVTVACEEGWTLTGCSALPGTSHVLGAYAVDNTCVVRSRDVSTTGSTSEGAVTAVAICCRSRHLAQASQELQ
Sequence of human PCSK9 (Q8NBP7 31-152 partner limits assumed): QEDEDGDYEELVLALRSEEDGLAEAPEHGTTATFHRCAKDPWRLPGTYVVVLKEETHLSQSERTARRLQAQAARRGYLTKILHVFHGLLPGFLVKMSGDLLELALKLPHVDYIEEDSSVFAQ

IC50 [pM]	Max % inhibition [%]	SMILES
401	107.3	Cc1c(CN(C)C)ncn1-c1ccc(Oc2cc(Cl)ccc2CN2C(=O)C[C@@H]([C@@H]3CCc4ccccc43)C(=O)N3CCC[C@@](Cc4ccc(Cl)cc4)(C3)NC(=O)[C@H](CO)NC(=O)[C@@H]2C)cc1 [Compound 7, (3S, 7S, 10S, 13R)-6-(4-chloro-2-(4-(4-((dimethylamino)methyl)-5-methyl-1H-imidazol-1-yl)phenoxy)benzyl)-13-(4-chlorobenzyl)-3-((S)-2,3-dihydro-1H-inden-1-yl)-10-(hydroxymethyl)-7-methyl-1,6,9,12-tetraazabicyclo[11.3.1]heptadecane-2,5,8,11-tetraone]
465	104.7	COC[C@@H]1NC(=O)[C@H](C)N(Cc2c(F)cc(Cl)cc2Oc2ccc(-c3cnc(CN(C)C)n3C)nc2)C(=O)C[C@@H](CC(F)(F)F)C(=O)N2CCC[C@@](Cc3ccc(Cl)cc3)(C2)NC1=O [Compound 8]
220	111.3	COC[C@@H]1NC(=O)[C@H](C)N(Cc2ccc(Cl)cc2Oc2ccc(-c3cnc(CN(C)C)n3C)cc2)C(=O)C[C@@H](CC(F)(F)F)C(=O)N2CCC[C@@](Cc3ccc(Cl)cc3)(C2)N(C)C1=O [Compound 9, (3S, 7S, 10S, 13R)-6-(4-chloro-2-(4-(2-((dimethylamino)methyl)-1-methyl-1H-imidazol-5-yl)phenoxy)benzyl)-13-(4-chlorobenzyl)-10-(methoxymethyl)-7,12-dimethyl-3-(2,2,2-trifluoroethyl)-1,6,9,12-tetraazabicyclo[11.3.1]heptadecane-2,5,8,11-tetraone]
152	115.5	C[C@H]1C(=O)N[C@@H](CO)C(=O)N[C@@]2(Cc3ccc(Cl)cc3)CCCN(C2)C(=O)[C@H](CC2CC2)CC(=O)N1Cc1c(F)cc(Cl)cc1Oc1ccc(-c2cnc(CN3CCCC3)n2C)cc1 [Compound 10, (3R, 7S, 10S, 13R)-6-(4-chloro-2-fluoro-6-(4-(1-methyl-2-(pyrrolidin-1-ylmethyl)-1H-imidazol-5-yl)phenoxy)benzyl)-13-(4-chlorobenzyl)-3-(cyclopropylmethyl)-10-(hydroxymethyl)-7-methyl-1,6,9,12-tetraazabicyclo[11.3.1]heptadecane-2,5,8,11-tetraone]
351	110.0	C[C@H]1C(=O)N[C@@H](CO)C(=O)N[C@@]2(Cc3ccc(Cl)cc3)CCCN(C2)C(=O)[C@H](Cc2ccccc2)CC(=O)N1Cc1c(F)cc(Cl)cc1Oc1ccc(-c2cnc(CN(C)C)n2C)cc1 [Compound 11, (3R, 7S, 10S, 13R)-3-benzyl-6-(4-chloro-2-(4-(2-((dimethylamino)methyl)-1-methyl-1H-imidazol-5-yl)phenoxy)-6-fluorobenzyl)-13-(4-chlorobenzyl)-10-(hydroxymethyl)-7-methyl-1,6,9,12-tetraazabicyclo[11.3.11]-heptadecane-2,5,8,11-tetraone]
152	112.8	COC[C@@H]1NC(=O)[C@H](C)N(Cc2ccc(Cl)cc2Oc2ccc(-c3cnc(CN(C)C)n3C)nc2)C(=O)C[C@@H](CC(F)(F)F)C(=O)N2CCC[C@@](Cc3ccc(Cl)cc3)(C2)N(C)C1=O [Compound 12, (3S, 7S, 10S, 13R)-6-(4-chloro-2-((6-(2-((dimethylamino)methyl)-1-methyl-1H-imidazol-5-yl)pyridin-3-yl)oxy)benzyl)-13-(4-chlorobenzyl)-10-(methoxymethyl)-7,12-dimethyl-3-(2,2,2-trifluoroethyl)-1,6,9,12-tetraazabicyclo[11.3.1]heptadecane-2,5,8,11-tetraone]
632	102.7	COC[C@@H]1NC(=O)[C@H](C)N(Cc2c(F)cc(Cl)cc2Oc2ccc(-c3cnc(CN4CCCC4)n3C)cc2)C(=O)C[C@@H](Cc2cccc(C)n2)C(=O)N2CCC[C@@](Cc3ccc(Cl)cc3)(C2)N(C)C1=O [Compound 14]
342	119.0	C[C@H]1C(=O)N[C@@H](CO)C(=O)N[C@@]2(Cc3ccc(Cl)cc3)CCCN(C2)C(=O)[C@H](CC(F)(F)F)CC(=O)N1Cc1c(F)cc(Cl)cc1Oc1ccc(-c2cnc(CN3CCCC3)n2C)cc1 [Compound 15, (3S, 7S, 10S, 13R)-6-(4-chloro-2-fluoro-6-(4-(1-methyl-2-(pyrrolidin-1-ylmethyl)-1H-imidazol-5-yl)phenoxy)benzyl)-13-(4-chlorobenzyl)-10-(hydroxymethyl)-7-methyl-3-(2,2,2-trifluoroethyl)-1,6,9,12-tetraazabicyclo[11.3.1]heptadecane-2,5,8,11-tetraone]
529	97.5	C[C@H]1C(=O)N[C@@H](CO)C(=O)N[C@@]2(Cc3ccc(Cl)cc3)CCCN(C2)C(=O)[C@H]([C@H]2CCc3ncccc32)CC(=O)N1Cc1ccc(Cl)cc1Oc1ccc(-c2cnc(CN(C)C)n2C)cc1.Cl [Compound 16, (3S, 7S, 10S, 13R)-6-(4-chloro-2-(4-(2-((dimethylamino)methyl)-1-methyl-1H-imidazol-5-yl)phenoxy)benzyl)-13-(4-chlorobenzyl)-3-((R)-6,7-dihydro-5H-cyclopenta[b]pyridin-5-yl)-10-(hydroxymethyl)-7-methyl-1,6,9,12-tetraazabicyclo[11.3.1]heptadecane-2,5,8,11-tetraone]
327	102.6	COC[C@@H]1NC(=O)[C@H](C)N(Cc2ncc(Cl)cc2Oc2ccc(-c3cnc(CN(C)C)n3C)cc2)C(=O)C[C@@H](Cc2ccccc2)C(=O)N2CCC[C@@](Cc3ccc(Cl)cc3)(C2)NC1=O [Compound 17, (3R, 7S, 10S, 13R)-3-benzyl-6-((5-chloro-3-(4-(2-((dimethylamino)methyl)-1-methyl-1H-imidazol-5-yl)phenoxy)pyridin-2-yl)methyl)-13-(4-chlorobenzyl)-10-(methoxymethyl)-7-methyl-1,6,9,12-tetraazabicyclo[11.3.1]heptadecane-2,5,8,11-tetraone]
549	104.5	C[C@H]1C(=O)N[C@@H](CO)C(=O)N(C)[C@@]2(Cc3ccc(Cl)cc3)CCCN(C2)C(=O)[C@H](Cc2ccccn2)CC(=O)N1Cc1ccc(Cl)cc1Oc1ccc(-c2cnc(CN(C)C)n2C)cc1 [Compound 18, (3R,7S,10S,13R)-6-(4-Chloro-2-(4-(2-((dimethylamino)methyl)-1-methyl-1H-imidazol-5-yl)phenoxy)benzyl)-13-(4-chlorobenzyl)-10-(hydroxymethyl)-7,12-dimethyl-3-(pyridin-2-ylmethyl)-1,6,9,12-tetraazabicyclo[11.3.1]heptadecane-2,5,8,11-tetraone]
450	105.3	C[C@H]1C(=O)N[C@@H](CO)C(=O)N[C@@]2(Cc3ccc(Cl)cc3)CCCN(C2)C(=O)[C@H](Cc2cccnc2)CC(=O)N1Cc1ccc(Cl)cc1Oc1ccc(-c2cnc(CN(C)C)n2C)cc1.Cl [Compound 19, (3R,7S,10S,13R)-6-(4-chloro-2-(4-(2-((dimethylamino)methyl)-1-methyl-1H-imidazol-5-yl)phenoxy)benzyl)-13-(4-chlorobenzyl)-10-(hydroxymethyl)-7-methyl-3-(pyridin-3-ylmethyl)-1,6,9,12-tetraazabicyclo[11.3.1]heptadecane-2,5,8,11-tetraone hydrochloride]
